Test results taken from the SangsterLogP compilation.

Assay: method code SF-HPLC, from DOI: 10.1080/01483919108049310
Conditions: pH 8.5

logD | Structure (SMILES)
3.89 | Cc1nn(-c2ccccc2)c(Nc2ccc(C(F)(F)F)cc2)c1[N+](=O)[O-]
3.43 | Cc1ccc(Nc2c([N+](=O)[O-])c(C)nn2-c2ccccc2)cc1
2.98 | Cc1nn(-c2ccccc2)c(Nc2ccccc2)c1[N+](=O)[O-]
3.8 | Cc1ccccc1Nc1c([N+](=O)[O-])c(C)nn1-c1ccccc1
3.39 | Cc1nn(-c2ccccc2)c(NN=Cc2ccc3c(c2[N+](=O)[O-])OCO3)c1[N+](=O)[O-]
2.78 | Cc1nn(-c2ccccc2)c(Nc2ccc([N+](=O)[O-])cc2)c1[N+](=O)[O-]
3.74 | Cc1nn(-c2ccccc2)c(Nc2ccc(Cl)cn2)c1[N+](=O)[O-]
3.25 | Cc1cccc(Nc2c([N+](=O)[O-])c(C)nn2-c2ccccc2)c1
